Measurements taken from publication PMC8067507, “Aryl Urea Based Scaffolds for Multitarget Drug Discovery in Anticancer Immunotherapies” (Pharmaceuticals, 2021).

Columns and labels:
[1] = system: c-Myc; test: c-Myc quantification by flow cytometry in HT-29; assay type: cell-based, human; conditions: HT-29, 10 μM, 24 h, referred to control (DMSO)
Description: (§1) We evaluated the effect of the selected compounds on PD-L1 and on c-Myc proteins by flow cytometry after 24 h treatment at 10 μM concentration of compounds. Both, PD-L1 and c-Myc were relatively determined using DMSO treated cells as a negative control and BMS-8 as a positive one.
(§2) For the detection of total PD-L1 and c-Myc, cancer cells were seeded (3 × 10^5 cells/well) in 6-well plates and were incubated with the corresponding compounds for 24 h. Then they were collected, fixed, treated with 0.5% Triton^TM X-100 and stained with Alexa Fluor® 647 Rabbit monoclonal Anti-PD-L1 (ab215251) and FITC Rabbit monoclonal anti-c-Myc (ab223913).
(§3) We also checked results performing ELISA tests. For ELISA tests, lysates were collected, protein quantification was carried out by Bradford test and, then, PD-L1 and c-Myc were quantified using Human PD-L1 ELISA Kit 28-8 (ab214565) and c-Myc (Total) Human ELISA Kit (KHO2041), respectively, according to the manufacturer’s instructions.

[2] = system: HT-29 cells; test: Cell proliferation evaluation in co-cultures: HT-29 with Jurkat T cells; assay type: cell-based, human; conditions: IFN-γ stimulated HT-29 co-cultured with Jurkat T cells, 10 µM, 24 h; five experiments
Description: We also studied the effect of Compounds 16, 23, 26 and 33 on tumor cell proliferation in the presence of PD-1 expressing Jurkat T-cells. For this assay, first interferon γ stimulated HT-29 cells were treated for 24 h with the selected compounds at 10 µM in presence of Jurkat T cells. Then, living cells were counted using trypan blue and a Neubauer chamber and by flow cytometry.
In 12-well plates, 10^5 HT-29 cells per well were seeded and incubated for 24 h with cell culture medium supplemented with IFN-γ (10 ng/mL; human, Invitrogen®) then medium was change by one containing 4 × 10^5 Jurkat T cells per well and 10 μM of the corresponding compound or DMSO for the control. After 24 h of incubation, supernatants were collected to determine Jurkat T cell living cells and, on the other hand, HT-29 cells were collected with trypsin. Both types of suspension cells were counted with the Neubauer chamber and trypan blue and also by flow cytometry.

[3] = target: T1, PD-L1 (Homo sapiens, UniProt Q9NZQ7); test: PD-L1 quantification by flow cytometry in A-549; assay type: cell-based; design: endogenous in cells; host or cells: A-549 cancer cells; conditions: A-549, 10 μM, 24 h, referred to control (DMSO)
T1 sequence (Q9NZQ7 19-290): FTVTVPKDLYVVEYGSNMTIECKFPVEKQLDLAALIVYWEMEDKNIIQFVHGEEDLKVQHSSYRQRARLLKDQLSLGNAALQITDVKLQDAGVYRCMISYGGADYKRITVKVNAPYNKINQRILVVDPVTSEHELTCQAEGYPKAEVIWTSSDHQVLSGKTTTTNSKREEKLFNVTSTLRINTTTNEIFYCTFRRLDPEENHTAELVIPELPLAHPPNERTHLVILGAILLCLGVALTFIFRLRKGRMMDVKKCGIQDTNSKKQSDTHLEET
Description: as §1, §2, §3

[4] = target: T1, PD-L1; test: PD-L1 quantification by flow cytometry in HT-29; assay type: cell-based; conditions: HT-29, 10 μM, 24 h, referred to control (DMSO)
Description: as §1, §2, §3

[5] = system: MCF-7 (breast adenocarcinoma); test: Cell proliferation assay (MTT); assay type: cell-based; conditions: Homo sapiens, MCF7, 48 h, 2 days incubation, average ± SD of three experiments
Text: (§4) The ability of Ureas 13–33 to inhibit cell proliferation was established by means of their IC50 values towards the human tumor cell lines HT-29 (colon adenocarcinoma), MCF-7 (breast adenocarcinoma), HeLa (epithelioid cervix carcinoma) and A549 (pulmonary adenocarcinoma), as well as towards the endothelial cell line HMEC-1 (human microvascular endothelial cells) and the non-tumor cell line HEK-293 (human embryonic kidney cells).
(§5) HT-29, MCF-7, HeLa, A549 and HEK-293 cell lines were maintained in Dulbecco’s modified Eagle’s medium (DMEM) containing glucose (1 g/L), glutamine (2 mM), penicillin (50 μg/mL), streptomycin (50 μg/mL), and amphotericin B (1.25 μg/mL), supplemented with 10% FBS. HMEC-1 cell line was maintained in Dulbecco’s modified Eagle’s medium (DMEM)/low glucose containing glutamine (2 mM), penicillin (50 μg/mL), streptomycin (50 μg/mL), and amphotericin B (1.25 μg/mL), supplemented with 10% FBS. For the development of tube formation assays in Matrigel, HMEC-1 cells were cultured in EGM-2MV Medium supplemented with EGM-2MV SingleQuots.
(§6) In 96-well plates, 3 × 10^3 (HeLa, A549, HMEC-1, HEK-293) or 5 × 10^3 (HT-29, MCF-7) cells per well were incubated with serial dilutions of the tested compounds in a total volume of 100 μL of their respective growth media. The 3-(4,5-dimethylthiazol-2-yl)-2,5-diphenyltetrazolium bromide (MTT; Sigma Chemical Co.) dye reduction assay in 96-well microplates was used. After 2 days of incubation (37 °C, 5% CO2 in a humid atmosphere), 10 μL of MTT (5 mg/mL in phosphate-buffered saline, PBS) was added to each well, and the plate was incubated for a further 3 h (37 °C). After that, the supernatant was discarded and replaced by 100 µL of DMSO to dissolve formazan crystals. The absorbance was then read at 540 nm by spectrophotometry. For all concentrations of compound, cell viability was expressed as the percentage of the ratio between the mean absorbance of treated cells and the mean absorbance of untreated cells. Three independent experiments were performed, and the IC50 values (i.e., concentration half inhibiting cell proliferation) were graphically determined using GraphPad Prism 4 software.

[6] = system: HT-29 (colon adenocarcinoma); test: Cell proliferation assay (MTT); assay type: cell-based; conditions: Homo sapiens, HT-29, 48 h, 2 days incubation, average ± SD of three experiments
Text: as §4, §5, §6

[7] = system: HeLa (epithelioid cervix carcinoma); test: Cell proliferation assay (MTT); assay type: cell-based; conditions: Homo sapiens, 48 h, 2 days incubation, average ± SD of three experiments
Text: as §4, §5, §6

[8] = system: HEK-293 (human embryonic kidney cells); test: Cell proliferation assay (MTT); assay type: cell-based; conditions: HEK293, 48 h, 2 days incubation, average ± SD of three experiments
Text: as §4, §5, §6

[9] = system: A549 (pulmonary adenocarcinoma); test: Cell proliferation assay (MTT); assay type: cell-based; conditions: Homo sapiens, A549, 48 h, 2 days incubation, average ± SD of three experiments
Text: as §4, §5, §6

[10] = system: c-Myc; test: c-Myc quantification by flow cytometry in A-549; assay type: cell-based, human; conditions: A-549, 10 μM, 24 h, referred to control (DMSO)
Description: as §1, §2, §3

[11] = system: all tested cell lines (HT-29, MCF-7, HeLa, A549, HMEC-1, HEK-293); design: method as in PMID 30878834; conditions: chlorophenyl derivatives of the previous study; read-out: IC50 values (range over cell lines); cited from earlier work
[12] = system: HMEC-1 (human microvascular endothelial cells); test: Cell proliferation assay (MTT); assay type: cell-based; conditions: HMEC-1, 48 h, 2 days incubation, average ± SD of three experiments
Text: as §4, §5, §6

[13] = target: T2, VEGFR-2 (Homo sapiens, UniProt P35968); test: VEGFR-2 quantification by flow cytometry in HMEC-1; assay type: cell-based; design: Both membrane and total VEGFR-2 were relatively determined using dimethyl sulfoxide (DMSO) treated cells as a negative control; endogenous in cells; host or cells: HMEC-1 (human microvascular endothelial cells); conditions: 10 µM, 24 h, relative to DMSO control
T2 sequence (P35968 20-1356): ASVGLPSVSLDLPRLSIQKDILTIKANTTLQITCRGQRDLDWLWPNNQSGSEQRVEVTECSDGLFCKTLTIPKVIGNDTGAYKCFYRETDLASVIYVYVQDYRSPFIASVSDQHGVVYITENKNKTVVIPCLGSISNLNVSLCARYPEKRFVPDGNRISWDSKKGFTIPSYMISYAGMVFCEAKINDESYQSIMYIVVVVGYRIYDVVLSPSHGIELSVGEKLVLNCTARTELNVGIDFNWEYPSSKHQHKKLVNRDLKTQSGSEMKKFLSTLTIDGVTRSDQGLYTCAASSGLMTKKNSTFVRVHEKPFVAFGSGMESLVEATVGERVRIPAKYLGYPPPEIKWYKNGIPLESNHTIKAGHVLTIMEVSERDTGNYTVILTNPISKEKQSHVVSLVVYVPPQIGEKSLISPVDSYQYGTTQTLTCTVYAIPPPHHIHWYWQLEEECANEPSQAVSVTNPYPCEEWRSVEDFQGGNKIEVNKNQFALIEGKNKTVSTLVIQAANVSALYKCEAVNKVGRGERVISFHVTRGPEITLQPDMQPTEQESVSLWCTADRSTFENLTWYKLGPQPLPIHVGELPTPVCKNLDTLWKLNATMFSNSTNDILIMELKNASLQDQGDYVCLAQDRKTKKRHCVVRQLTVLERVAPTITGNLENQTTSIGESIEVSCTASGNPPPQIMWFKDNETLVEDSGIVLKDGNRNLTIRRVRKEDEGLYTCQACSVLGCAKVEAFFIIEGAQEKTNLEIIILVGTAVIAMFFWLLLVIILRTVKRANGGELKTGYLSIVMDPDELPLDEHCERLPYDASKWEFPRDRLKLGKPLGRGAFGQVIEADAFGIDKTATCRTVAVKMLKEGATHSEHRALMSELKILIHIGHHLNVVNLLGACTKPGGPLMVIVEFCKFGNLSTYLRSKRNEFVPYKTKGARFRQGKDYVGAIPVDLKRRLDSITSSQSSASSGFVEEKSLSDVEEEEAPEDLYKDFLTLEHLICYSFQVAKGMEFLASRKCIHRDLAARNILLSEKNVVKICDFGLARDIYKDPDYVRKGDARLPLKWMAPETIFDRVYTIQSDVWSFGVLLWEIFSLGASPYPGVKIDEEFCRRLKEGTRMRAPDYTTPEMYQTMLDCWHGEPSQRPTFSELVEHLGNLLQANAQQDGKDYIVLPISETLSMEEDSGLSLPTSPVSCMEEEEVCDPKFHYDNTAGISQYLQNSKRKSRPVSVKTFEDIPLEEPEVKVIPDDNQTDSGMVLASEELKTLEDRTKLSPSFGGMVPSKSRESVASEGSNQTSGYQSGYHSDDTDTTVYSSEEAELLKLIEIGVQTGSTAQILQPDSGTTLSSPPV
Description: (§7) We performed the study on both a HT-29 cancer cell line and a human microvessel endothelial cell line (HMEC-1). […] The effect of these selected derivatives on VEGFR-2, on HT-29 tumor cell line and on human microvessel endothelial cells (HMEC) was determined by flow cytometry technique. […] For these assays, cells were incubated for 24 h in the presence of the corresponding compounds at 10 µM concentration.

[14] = target: T2, VEGFR-2; test: VEGFR-2 quantification by flow cytometry in HT-29; assay type: cell-based; design: Both membrane and total VEGFR-2 were relatively determined using dimethyl sulfoxide (DMSO) treated cells as a negative control; endogenous in cells; host or cells: HT-29 (colon adenocarcinoma) and HMEC-1 (human microvascular endothelial cells); conditions: 24 h; for Membrane VEGFR-2 (%) / Total VEGFR-2 (%): HT-29, 10 µM, relative to DMSO control
Description: as §7

[15] = system: HMEC-1 cells; test: Tube formation inhibition assay; assay type: cell-based, human; conditions: HMEC-1 on Matrigel, 20 h incubation; average of three experiments
Description: as §5
Wells of an IBIDI μ-slide angiogenesis (IBIDI, Martinsried, Germany) were coated with 12 μL of Matrigel® (10 mg/mL, BD Biosciences) at 4 °C. After gelatinization at 37 °C for 30 min, HMEC-1 cells were seeded at 2 × 10^4 cells/well in 35 μL of culture medium on top of the Matrigel and were incubated 30 min at 37 °C while are attached. Then, compounds were added dissolved in 35 μL of culture medium and after 20 h of incubation at 37 °C, tube destruction was evaluated.

SMILES | c-Myc (%) relative expression [1] [%] | Living HT-29 cell proliferation (%) [2] [%] | PD-L1 (%) relative expression [3] [%] | PD-L1 (%) relative expression [4] [%] | IC50 [5] [µM] | IC50 [6] [µM] | IC50 [7] [µM] | IC50 [8] [µM] | IC50 [9] [µM] | c-Myc (%) relative expression [10] [%] | IC50 [11] [µM] | melting point [°C] | IC50 [12] [µM] | Membrane VEGFR-2 (%) [13] [%] | Total VEGFR-2 (%) [13] [%] | inhibition at 10 µM ([14]; 10 µM, statement for HT-29 and HMEC-1, read-out: inhibition of both membrane and total VEGFR-2) [%] | Membrane VEGFR-2 (%) [14] [%] | Total VEGFR-2 (%) [14] [%] | Minimum Active Conc. (inhibition of tube formation) [15] [µM]
Cc1c(COc2ccc(CN3CCCCC3C(=O)O)cc2Br)cccc1-c1ccccc1 (centres unmarked) [BMS-8, reference compound] | 99 ± 4 | 45 | 68 ± 5 | 62 ± 3 | 20 ± 3 | 19 ± 2 | > 100 | 60 ± 10 | 6 ± 1 | 60 ± 7 | – | – | – | – | – | – | – | – | –
COc1ccc(/C=C/c2cccc(NC(=O)Nc3cccc(Cl)c3)c2)cc1 [Compound 5] | – | – | – | – | – | – | – | – | – | – | 2 to 11 | – | – | – | – | – | – | – | –
COc1ccc(/C=C/c2cccc(NC(=O)Nc3ccc(Cl)cc3)c2)cc1 [Compound 6] | – | – | – | – | – | – | – | – | – | – | 0.4 to 1.8 | – | – | – | – | – | – | – | –
COc1ccc(/C=C\c2cccc(NC(=O)Nc3cccc(Br)c3)c2)cc1 [Compound 15] | – | – | – | – | 28 ± 5 | 25 ± 2 | 30 ± 7 | 23 ± 2 | 38 ± 6 | – | – | 174 | 24 ± 4 | – | – | – | – | – | –
COc1ccc(/C=C/c2cccc(NC(=O)Nc3ccc(Br)cc3)c2)cc1 [Compound 23] | 49 ± 8 | 64 | 16 ± 6 | 18 ± 5 | 0.3 ± 0.2 | 0.4 ± 0.3 | 3.1 ± 0.1 | 0.7 ± 0.3 | 3 ± 0.4 | 34 ± 4 | – | – | 1.8 ± 0.3 | 39 ± 5 | 74 ± 8 | > 50 | 36 ± 9 | 39 ± 8 | 1
COc1ccc(/C=C/c2cccc(NC(=O)Nc3ccc(OC)cc3)c2)cc1 [Compound 26] | 57 ± 9 | 62 | 50 ± 3 | 33 ± 10 | 0.7 ± 0.3 | 0.2 ± 0.2 | 4 ± 1 | 1.4 ± 0.6 | 13 ± 3 | 63 ± 7 | – | – | 1.9 ± 0.6 | 65 ± 9 | 83 ± 7 | – | 68 ± 9 | 95 ± 9 | –
COc1ccc(CCc2cccc(NC(=O)Nc3ccc(OC)cc3)c2)cc1 [Compound 33] | 70 ± 10 | 62 | 42 ± 11 | 38 ± 13 | 1.5 ± 0.6 | 4.4 ± 0.8 | 1.4 ± 0.5 | 0.9 ± 0.07 | 8 ± 3 | 83 ± 12 | – | – | 0.9 ± 0.03 | 66 ± 5 | 93 ± 8 | – | 68 ± 13 | 100 ± 10 | –
CNC(=O)c1cc(Oc2ccc(NC(=O)Nc3ccc(Cl)c(C(F)(F)F)c3)cc2)ccn1 [Sorafenib, sorafenib, reference compound] | – | – | – | – | 14 ± 4 | 17 ± 4 | 6.1 ± 0.4 | 5 ± 0.7 | 27 ± 2 | – | – | – | 34 ± 3 | – | – | – | – | – | 10
CCN(CC)CCNC(=O)c1c(C)[nH]c(/C=C2\C(=O)Nc3ccc(F)cc32)c1C [Sunitinib, sunitinib, reference compound] | – | – | – | – | – | – | – | – | – | – | – | – | – | – | – | – | – | – | 3
